Assay results as given in ChEMBL document CHEMBL4330111 (Bioorg Med Chem Lett, 2019).

Legend:
Vero = assay: Cytotoxicity against African green monkey Vero cells after 48 hrs by MTT assay; format: cell-based; conditions: chlorocebus sabaeus
[1] = test system: Mycobacterium tuberculosis; assay: microbe, parasite or virus in culture; conditions: H37Rv, 144 h
Description: Antitubercular activity against Mycobacterium tuberculosis H37Rv after 6 days by alamar blue reagent based assay

[2] = Cmax in CD-1 mouse at 25 mg/kg, po administered as single dose by LC-MS/MS analysis; format: ADME, organism-based; parameters: dose 25 mg/kg, route oral; conditions: CD-1, mouse, in vivo, read-out: Cmax
[3] = AUC (0 to 5 hrs) in CD-1 mouse at 25 mg/kg, po administered as single dose by LC-MS/MS analysis; format: ADME, organism-based; parameters: dose 25 mg/kg, route oral; conditions: in vivo
[4] = Half life in mouse liver microsomes; format: ADME, Microsome
[5] = Kinetic solubility of the compound in pH 7.4 phosphate buffered saline; format: physicochemical; conditions: buffer
[6] = Intrinsic clearance in mouse liver microsomes assessed per mg protein; format: ADME, Microsome

In the case of `CC(C)(NC(=O)c1ccc([N+](=O)[O-])o1)c1ccc(COc2ccc(OC(F)(F)F)cc2)cc1`, the CC50 (Vero) is reported as 6.7 µM and the MIC [1] is reported as 0.39 µM.

Work on `CC(C)(NC(=O)c1ccc([N+](=O)[O-])o1)c1ccc(Cl)cc1` yielded an MIC [1] of 0.15 µM.

For `COc1ccc(C(C)(C)NC(=O)c2ccc([N+](=O)[O-])o2)cc1`, the MIC [1] was 0.078 µM.

With `O=C(NCCCc1ccccc1)c1ccc([N+](=O)[O-])o1` the CC50 (Vero) was 11 µM and the MIC [1] was 0.78 µM.

With `CC(C)(NC(=O)c1ccc([N+](=O)[O-])o1)c1ccc(COc2ccc(Cl)cc2)cc1` the Cmax [2] was 22 nM, the AUC [3] was 34 ng·h/mL and the MIC [1] was 0.12 µM.

Work on `CN(C)c1ccc(C(C)(C)NC(=O)c2ccc([N+](=O)[O-])o2)cc1` yielded a CC50 (Vero) of 79 µM and an MIC [1] of 0.2 µM.

`O=C(NCc1ccc(Cl)cc1)c1ccc([N+](=O)[O-])o1` showed an MIC [1] of 0.098 µM.

`CC(C)(NC(=O)c1ccc([N+](=O)[O-])o1)c1ccc(OC(F)(F)F)cc1` gave a CC50 (Vero) of 70 µM and an MIC [1] of 0.2 µM.

`O=C(Nc1cc2ccccc2s1)c1ccc([N+](=O)[O-])o1` showed a CC50 (Vero) of 38 µM, a t1/2 [4] of 1.87 min and a Kinetic_solubility [5] of 5.61 µM. It also gave an Intrinsic clearance [6] of 371 µL/min and an MIC [1] of 0.078 µM.

With `CC(C)(NC(=O)c1ccc([N+](=O)[O-])o1)c1ccc(CN2CCOCC2)cc1` the CC50 (Vero) was 130 µM and the MIC [1] was over 10 µM.

Work on `O=C(NCCc1ccc(Cl)cc1)c1ccc([N+](=O)[O-])o1` yielded a CC50 (Vero) of 5.4 µM and an MIC [1] of 0.39 µM.

Work on `O=C(NC1(c2ccccc2)CC1)c1ccc([N+](=O)[O-])o1` yielded a CC50 (Vero) of 46 µM and an MIC [1] of 6.2 µM.

In the case of `O=C(Nc1ccc2ccccc2c1)c1ccc([N+](=O)[O-])o1`, the CC50 (Vero) is reported as over 150 µM, the t1/2 [4] is reported as 2.13 min and the Kinetic_solubility [5] is reported as 1.5 µM. The Intrinsic clearance [6] was 325 µL/min and the MIC [1] was 0.0078 µM.

`O=C(NCc1ccc(COc2ccc(Cl)cc2)cc1)c1ccc([N+](=O)[O-])o1` showed an MIC [1] of 0.039 µM.

`O=C(NC(c1ccccc1)C1CC1)c1ccc([N+](=O)[O-])o1` (stereo unspecified) showed a CC50 (Vero) of 22 µM and an MIC [1] of 12 µM.

In the case of `O=C(NCc1ccc(CN2CCOCC2)cc1)c1ccc([N+](=O)[O-])o1`, the CC50 (Vero) is reported as 18 µM and the MIC [1] is reported as 1.2 µM.

`CC(C)(NC(=O)c1ccc([N+](=O)[O-])o1)c1ccc(-c2ccc(Cl)cc2)cc1` gave a CC50 (Vero) of over 140 µM and an MIC [1] of 25 µM.

Compound `CC(C)(NC(=O)c1ccc([N+](=O)[O-])o1)c1ccc(COc2ccccc2C(F)(F)F)cc1` has a CC50 (Vero) of 14 µM and an MIC [1] of 0.31 µM.

Work on `O=C(NCc1ccc(-c2ccc(Cl)cc2)cc1)c1ccc([N+](=O)[O-])o1` yielded a CC50 (Vero) of 4.4 µM and an MIC [1] of 0.12 µM.

`CC(C)(C)c1ccc(C(C)(C)NC(=O)c2ccc([N+](=O)[O-])o2)cc1` showed a CC50 (Vero) of over 150 µM and an MIC [1] of 0.39 µM.

For `CC(C)(NC(=O)c1ccc([N+](=O)[O-])o1)c1ccc(COc2ccccc2Cl)cc1`, the CC50 (Vero) was 30 µM and the MIC [1] was 0.31 µM.

Work on `CO[C@H]1/C=C/O[C@@]2(C)Oc3c(C)c(O)c4c(O)c(c(/C=N/N5CCN(C)CC5)c(O)c4c3C2=O)NC(=O)/C(C)=C\C=C\[C@H](C)[C@H](O)[C@@H](C)[C@@H](O)[C@@H](C)[C@H](OC(C)=O)[C@@H]1C` [RIFAMPIN] yielded an MIC [1] of 0.0125 to 0.05 µg/mL.
